Test results as given in PubChem BioAssay AID1963869 (Molecular Pharmacology Branch, DTP, NCI, 2024).

Test system: KRAS patient-derived spheroids with HUVEC/MSC, viability
Assay: Anticancer human tumor 323965-272-R-J2-PDC patient-derived pancreatic carcinoma cell line growth inhibition [KRAS2]
Settings: for IC50: curve of first compound; for viability, T/C: stronger effect = lower value
In short: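 Combination screen of spheroid viability in tumor-cell co-cultures with endothelial (HUVEC) and mesenchymal stem cell stroma. Each agent was tested in half-log dilutions, topping at clinical Cmax or at 10 microM without a known Cmax.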

[1] = second compound 0.1 µM, first compound 0.0316 µM
[2] = second compound 0.1 µM, first compound 0.1 µM
[3] = second compound 0.1 µM, first compound 0.316 µM
[4] = second compound 0.1 µM, first compound 1 µM
[5] = second compound 0.1 µM, first compound 3.16 µM
[6] = second compound 0.1 µM, first compound 10 µM
[7] = second compound 0.316 µM, first compound 0.0316 µM
[8] = second compound 0.316 µM, first compound 0.1 µM
[9] = second compound 0.316 µM, first compound 0.316 µM
[10] = second compound 0.316 µM, first compound 1 µM
[11] = second compound 0.316 µM, first compound 3.16 µM
[12] = second compound 0.316 µM, first compound 10 µM
[13] = second compound 1 µM, first compound 0.0316 µM
[14] = second compound 1 µM, first compound 0.1 µM
[15] = second compound 1 µM, first compound 0.316 µM
[16] = second compound 1 µM, first compound 1 µM
[17] = second compound 1 µM, first compound 3.16 µM
[18] = second compound 1 µM, first compound 10 µM
[19] = second compound 3.16 µM, first compound 0.0316 µM
[20] = second compound 3.16 µM, first compound 0.1 µM
[21] = second compound 3.16 µM, first compound 0.316 µM
[22] = second compound 3.16 µM, first compound 1 µM
[23] = second compound 3.16 µM, first compound 3.16 µM
[24] = second compound 3.16 µM, first compound 10 µM
[25] = second compound 10 µM, first compound 0.0316 µM
[26] = second compound 10 µM, first compound 0.1 µM
[27] = second compound 10 µM, first compound 0.316 µM
[28] = second compound 10 µM, first compound 1 µM
[29] = second compound 10 µM, first compound 3.16 µM
[30] = second compound 10 µM, first compound 10 µM
[31] = second compound 0.1 µM, first compound 0.00316 µM
[32] = second compound 0.1 µM, first compound 0.01 µM
[33] = second compound 0.316 µM, first compound 0.00316 µM
[34] = second compound 0.316 µM, first compound 0.01 µM
[35] = second compound 1 µM, first compound 0.00316 µM
[36] = second compound 1 µM, first compound 0.01 µM
[37] = second compound 3.16 µM, first compound 0.00316 µM
[38] = second compound 3.16 µM, first compound 0.01 µM
[39] = second compound 10 µM, first compound 0.00316 µM
[40] = second compound 10 µM, first compound 0.01 µM
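Also: spheroids exposed to agents for 7 days.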
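For viability, T/C in this document: 100% = DMSO vehicle control viability.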

## CC(C)NCC(C(=O)N1CCN(c2ncnc3c2C(C)CC3O)CC1)c1ccc(Cl)cc1 (stereo not given) + CNCc1ccccc1-c1csc(C(C)Nc2nc(C)nc3cc(OC)c(OC)cc23)c1
Second compound 0.1 µM
  IC50: 1.57 µM
Second compound 0.316 µM
  IC50: 1.06 µM
Second compound 1 µM
  IC50: 1.33 µM
Second compound 3.16 µM
  IC50: 0.532 µM
Second compound 10 µM
  IC50: < 0.0316 µM
[1]
  viability, T/C: 90.9%
[2]
  viability, T/C: 85.4%
[3]
  viability, T/C: 70.6%
[4]
  viability, T/C: 55.8%
[5]
  viability, T/C: 41.7%
[6]
  viability, T/C: 36%
[7]
  viability, T/C: 94.2%
[8]
  viability, T/C: 85.2%
[9]
  viability, T/C: 72.9%
[10]
  viability, T/C: 48.1%
[11]
  viability, T/C: 41.4%
[12]
  viability, T/C: 33%
[13]
  viability, T/C: 94.9%
[14]
  viability, T/C: 91.8%
[15]
  viability, T/C: 79.9%
[16]
  viability, T/C: 54.4%
[17]
  viability, T/C: 36.7%
[18]
  viability, T/C: 32.9%
[19]
  viability, T/C: 88.3%
[20]
  viability, T/C: 73.2%
[21]
  viability, T/C: 58.5%
[22]
  viability, T/C: 43%
[23]
  viability, T/C: 21.5%
[24]
  viability, T/C: 18%
[25]
  viability, T/C: 0.27%
[26]
  viability, T/C: 0.28%
[27]
  viability, T/C: 0.23%
[28]
  viability, T/C: 0.59%
[29]
  viability, T/C: 0.71%
[30]
  viability, T/C: 0.19%

## CC(C)n1nc(-c2ccc3oc(N)nc3c2)c2c(N)ncnc21 + CNCc1ccccc1-c1csc(C(C)Nc2nc(C)nc3cc(OC)c(OC)cc23)c1
Second compound 0.1 µM
  IC50: 0.00212 µM
Second compound 0.316 µM
  IC50: 0.002 µM
Second compound 1 µM
  IC50: 0.00272 µM
Second compound 3.16 µM
  IC50: 0.00245 µM
Second compound 10 µM
  IC50: < 0.000316 µM
Second compound 0.1 µM, first compound 0.000316 µM
  viability, T/C: 84.4%
Second compound 0.1 µM, first compound 0.001 µM
  viability, T/C: 58.7%
[31]
  viability, T/C: 47.6%
[32]
  viability, T/C: 30.1%
[1]
  viability, T/C: 22.7%
[2]
  viability, T/C: 17.9%
Second compound 0.316 µM, first compound 0.000316 µM
  viability, T/C: 78.2%
Second compound 0.316 µM, first compound 0.001 µM
  viability, T/C: 60.8%
[33]
  viability, T/C: 43.1%
[34]
  viability, T/C: 28.2%
[7]
  viability, T/C: 19.3%
[8]
  viability, T/C: 16.8%
Second compound 1 µM, first compound 0.000316 µM
  viability, T/C: 80.6%
Second compound 1 µM, first compound 0.001 µM
  viability, T/C: 71.5%
[35]
  viability, T/C: 44.6%
[36]
  viability, T/C: 29.8%
[13]
  viability, T/C: 19.1%
[14]
  viability, T/C: 15.6%
Second compound 3.16 µM, first compound 0.000316 µM
  viability, T/C: 89%
Second compound 3.16 µM, first compound 0.001 µM
  viability, T/C: 76%
[37]
  viability, T/C: 42.9%
[38]
  viability, T/C: 16%
[19]
  viability, T/C: 9.29%
[20]
  viability, T/C: 9.2%
Second compound 10 µM, first compound 0.000316 µM
  viability, T/C: 0.23%
Second compound 10 µM, first compound 0.001 µM
  viability, T/C: 0.23%
[39]
  viability, T/C: 0.19%
[40]
  viability, T/C: 0.16%
[25]
  viability, T/C: 0.12%
[26]
  viability, T/C: 0.35%

## CC1(C)CCC(CN2CCN(c3ccc(C(=O)NS(=O)(=O)c4ccc(NCC5CCOCC5)c([N+](=O)[O-])c4)c(Oc4cnc5[nH]ccc5c4)c3)CC2)=C(c2ccc(Cl)cc2)C1 + CNCc1ccccc1-c1csc(C(C)Nc2nc(C)nc3cc(OC)c(OC)cc23)c1
Second compound 0.1 µM
  IC50: 1.82 µM
Second compound 0.316 µM
  IC50: 1.68 µM
Second compound 1 µM
  IC50: 1.91 µM
Second compound 3.16 µM
  IC50: 1.43 µM
Second compound 10 µM
  IC50: < 0.0316 µM
[1]
  viability, T/C: 94.5%
[2]
  viability, T/C: 94.2%
[3]
  viability, T/C: 86.2%
[4]
  viability, T/C: 87.8%
[5]
  viability, T/C: 14.9%
[6]
  viability, T/C: 5.18%
[7]
  viability, T/C: 83%
[8]
  viability, T/C: 91.8%
[9]
  viability, T/C: 92.5%
[10]
  viability, T/C: 81.2%
[11]
  viability, T/C: 12%
[12]
  viability, T/C: 2.51%
[13]
  viability, T/C: 106%
[14]
  viability, T/C: 104%
[15]
  viability, T/C: 99.2%
[16]
  viability, T/C: 94.8%
[17]
  viability, T/C: 15.3%
[18]
  viability, T/C: 1.65%
[19]
  viability, T/C: 104%
[20]
  viability, T/C: 102%
[21]
  viability, T/C: 98.7%
[22]
  viability, T/C: 71.3%
[23]
  viability, T/C: 1.61%
[24]
  viability, T/C: 1.05%
[25]
  viability, T/C: 0.23%
[26]
  viability, T/C: 0.28%
[27]
  viability, T/C: 0.27%
[28]
  viability, T/C: 0.19%
[29]
  viability, T/C: 0.14%
[30]
  viability, T/C: 0.18%

## CCN1CCN(Cc2ccc(Nc3ncc(F)c(-c4cc(F)c5nc(C)n(C(C)C)c5c4)n3)nc2)CC1 + CNCc1ccccc1-c1csc(C(C)Nc2nc(C)nc3cc(OC)c(OC)cc23)c1
Second compound 0.1 µM
  IC50: > 1 µM
Second compound 0.316 µM
  IC50: > 1 µM
Second compound 1 µM
  IC50: > 1 µM
Second compound 3.16 µM
  IC50: 0.127 µM
Second compound 10 µM
  IC50: < 0.00316 µM
[31]
  viability, T/C: 91.5%
[32]
  viability, T/C: 85.2%
[1]
  viability, T/C: 59.8%
[2]
  viability, T/C: 47%
[3]
  viability, T/C: 51.5%
[4]
  viability, T/C: 59.7%
[33]
  viability, T/C: 97.3%
[34]
  viability, T/C: 93.3%
[7]
  viability, T/C: 65.7%
[8]
  viability, T/C: 56%
[9]
  viability, T/C: 53%
[10]
  viability, T/C: 56%
[35]
  viability, T/C: 94.2%
[36]
  viability, T/C: 92.8%
[13]
  viability, T/C: 72.6%
[14]
  viability, T/C: 71.8%
[15]
  viability, T/C: 61.8%
[16]
  viability, T/C: 57.7%
[37]
  viability, T/C: 80%
[38]
  viability, T/C: 79.2%
[19]
  viability, T/C: 68.4%
[20]
  viability, T/C: 53.4%
[21]
  viability, T/C: 33%
[22]
  viability, T/C: 1.27%
[39]
  viability, T/C: 0.23%
[40]
  viability, T/C: 0.23%
[25]
  viability, T/C: 0.18%
[26]
  viability, T/C: 0.16%
[27]
  viability, T/C: 0.16%
[28]
  viability, T/C: 0.18%

## CCNC(=O)CC1N=C(c2ccc(Cl)cc2)c2cc(OC)ccc2-n2c(C)nnc21 (stereo not given) + CNCc1ccccc1-c1csc(C(C)Nc2nc(C)nc3cc(OC)c(OC)cc23)c1
Second compound 0.1 µM
  IC50: 0.37 µM
Second compound 0.316 µM
  IC50: 0.332 µM
Second compound 1 µM
  IC50: 0.466 µM
Second compound 3.16 µM
  IC50: 0.436 µM
Second compound 10 µM
  IC50: < 0.0316 µM
[1]
  viability, T/C: 94.1%
[2]
  viability, T/C: 75.7%
[3]
  viability, T/C: 51.9%
[4]
  viability, T/C: 38.5%
[5]
  viability, T/C: 33.7%
[6]
  viability, T/C: 33.5%
[7]
  viability, T/C: 87.2%
[8]
  viability, T/C: 77.7%
[9]
  viability, T/C: 50.3%
[10]
  viability, T/C: 36.4%
[11]
  viability, T/C: 34.5%
[12]
  viability, T/C: 31.6%
[13]
  viability, T/C: 94.8%
[14]
  viability, T/C: 80.2%
[15]
  viability, T/C: 54.8%
[16]
  viability, T/C: 40.1%
[17]
  viability, T/C: 34.2%
[18]
  viability, T/C: 32.4%
[19]
  viability, T/C: 98.9%
[20]
  viability, T/C: 80.7%
[21]
  viability, T/C: 55.4%
[22]
  viability, T/C: 36.3%
[23]
  viability, T/C: 26.2%
[24]
  viability, T/C: 24.1%
[25]
  viability, T/C: 0.5%
[26]
  viability, T/C: 0.19%
[27]
  viability, T/C: 0.17%
[28]
  viability, T/C: 0.15%
[29]
  viability, T/C: 0.21%
[30]
  viability, T/C: 0.3%

## COc1cc2nccc(Oc3ccc(NC(=O)C4(C(=O)Nc5ccc(F)cc5)CC4)cc3)c2cc1OC + CNCc1ccccc1-c1csc(C(C)Nc2nc(C)nc3cc(OC)c(OC)cc23)c1
Second compound 0.1 µM
  IC50: > 10 µM
Second compound 0.316 µM
  IC50: > 10 µM
Second compound 1 µM
  IC50: > 10 µM
Second compound 3.16 µM
  IC50: 4.24 µM
Second compound 10 µM
  IC50: < 0.0316 µM
[1]
  viability, T/C: 91.7%
[2]
  viability, T/C: 99.3%
[3]
  viability, T/C: 110%
[4]
  viability, T/C: 101%
[5]
  viability, T/C: 85.2%
[6]
  viability, T/C: 87.2%
[7]
  viability, T/C: 87.2%
[8]
  viability, T/C: 88.7%
[9]
  viability, T/C: 100%
[10]
  viability, T/C: 93.2%
[11]
  viability, T/C: 91.4%
[12]
  viability, T/C: 82%
[13]
  viability, T/C: 105%
[14]
  viability, T/C: 99%
[15]
  viability, T/C: 102%
[16]
  viability, T/C: 101%
[17]
  viability, T/C: 92.6%
[18]
  viability, T/C: 72.7%
[19]
  viability, T/C: 95.4%
[20]
  viability, T/C: 91.8%
[21]
  viability, T/C: 92.2%
[22]
  viability, T/C: 91.6%
[23]
  viability, T/C: 66.5%
[24]
  viability, T/C: 1.54%
[25]
  viability, T/C: 0.33%
[26]
  viability, T/C: 0.3%
[27]
  viability, T/C: 0.27%
[28]
  viability, T/C: 0.75%
[29]
  viability, T/C: 0.33%
[30]
  viability, T/C: 0.34%
